Source: US11419869B2, “Dosage forms and regimens for amino acid compounds” (Pliant Therapeutics, Inc., priority 2019, dated 2022)

Assays:
[1] = test system: Type I Collagen gene Col1a1 expression; test: Precision cut lung slices, mice under acute bleomycin exposure (Example B8); format: cell-based; conditions: 3 days culture, normalized to DMSO, FIG. 5A
Method: Mice (C57BL/6) were administered 3 U/kg of bleomycin (Teva Pharmaceuticals; North Wales, Pa.) on day 0 via oropharyngeal aspiration while under anesthesia. On day 14, precision cut lung slices were obtained. Following euthanization, 2% low gelling temp agarose was injected into the mouse lungs via the trachea. […] The lobes were then subjected to precision slicing to obtain samples for culture using a microtome (Compresstome VF-300-0Z, Precisionary; Greenville, N.C.). Individual slices were distributed in a multiwell culture plate and cultured for 3 days under control (DMSO) and test compound conditions.

[2] = SAD and MAD first-in-human pharmacokinetic studies (Example B12); format: in vivo
Method: Healthy human subjects (N=85) were selected for single ascending dose (SAD) and multiple ascending dose (MAD) first-in-human studies. A solution for oral administration was prepared, containing 10 mg/mL of compound 5 in a 50:50 mixture of ORA-SWEET® SF (PERRIGO®, Allegan, Mich.) and sterile water for irrigation. Sufficient solution was administered orally to the subjects to provide between 15 mg/dose and 75 mg/dose of compound 5 in the SAD study and between 10 mg/dose and 40 mg/dose of compound 5 in the MAD study. Concentrations of compound 5 were measured in the subjects by obtaining a sample of plasma from each subject at desired intervals, and subjecting the plasma to liquid chromatography-mass spectrometry-mass spectrometry (LC-MS/MS), with quantification using a calibration curve determined from a range of solutions at standardized concentrations. The lower limit of quantitation (LLOQ) of the assay was 1 ng/mL and the calibration curve range was 1 to 500 ng/mL.

[3] = test system: lung Col1a1 expression; test: Precision cut lung slices, chronic bleomycin, versus pirfenidone and nintedanib (Example B10); format: cell-based, mice; conditions: 7 days culture, vs DMSO vehicle, FIG. 6A
Method: Mice (C57BL/6) were administered 3 U/kg of bleomycin (Teva Pharmaceuticals; North Wales, Pa.) on Day 0 and 1 U/kg of bleomycin on days 14, 28, 42 and 56 via oropharyngeal aspiration while under anesthesia. At day 70, 14 days following the final bleomycin insult, precision cut lung slices were obtained. Following euthanization, 2% low gelling temp agarose was injected into the mouse lungs via the trachea. […] The lobes were then subjected to precision slicing to obtain samples for culture using a microtome (Compresstome VF-300-0Z, Precisionary; Greenville, N.C.). Individual slices were distributed in a multiwell culture plate and cultured for 7 days under control (DMSO) and test compound conditions. The viability of the slices over the course of culturing was confirmed by WST-1 assay of mitochondrial activity.
During the culture period, slices in the control group were treated with DMSO and slices in the test group were treated with a DMSO solution of one of compound 5; nintedanib; pirfenidone; a combination of nintedanib and compound 5; a combination of pirfenidone and compound 5; or the small molecule ALK5 inhibitor. Compound 5 was […] effective to equal or exceed its respective IC50 values at αvβ6 and αvβ1. The small molecule ALK5 inhibitor was analyzed at […] its reported IC50 value. Nintendanib and pirfenidone were analyzed at concentrations 10× their reported therapeutic concentrations.

Structure (SMILES): COCCN(CCCCc1ccc2c(n1)NCCC2)CC[C@H](Nc1ncnc2ccccc12)C(=O)O [Compound 5, (S)-4-((2-methoxyethyl) (4-(5,6,7,8-tetrahydro-1,8-naphthyridin-2-yl)butyl)amino)-2-(quinazolin-4-ylamino) butanoic acid]
- Type I Collagen gene Col1a1 expression [1]: decreased Type I Collagen gene Col1a1 expression substantially
- oral bioavailability and pharmacokinetics ([2]; healthy subjects): good oral bioavailability and pharmacokinetics
- half-life ([2]; plasma, healthy human subjects, oral solution, SAD 15-75 mg, MAD 10-40 mg, read-out: calculated half life): 18 to 20 h
- lung slice Col1a1 expression [3]: substantial, statistically significant (p<0.01 vs vehicle) decrease
